Several values for one entry are separate records, joined by “and”; a condition that tells them apart may be missing. Equal entries are not always repeated.

The target of data set [1] is EGFR-TK in A431 cell membranes (Homo sapiens, UniProt P00533). The format is binding. The conditions noted are these: A431 P2 membranes, Scatchard analysis. The method, then: Assays were carried out as described in the previous section. Crude P2 membrane fractions (A431or NALM6, 0.1 mg of protein, 10 μL) and [^125I]PYK (1–300 nM, 100 μL, 0.74 kBq) were used. […] Specific binding was defined as the difference between the total and non-specific binding. Scatchard plot analysis of the saturation binding data was used to determine the equilibrium dissociation constant (K d) and the maximal number of binding sites (B max).
EGFR-TK in A431 cell membranes, sequence (P00533 25-1210): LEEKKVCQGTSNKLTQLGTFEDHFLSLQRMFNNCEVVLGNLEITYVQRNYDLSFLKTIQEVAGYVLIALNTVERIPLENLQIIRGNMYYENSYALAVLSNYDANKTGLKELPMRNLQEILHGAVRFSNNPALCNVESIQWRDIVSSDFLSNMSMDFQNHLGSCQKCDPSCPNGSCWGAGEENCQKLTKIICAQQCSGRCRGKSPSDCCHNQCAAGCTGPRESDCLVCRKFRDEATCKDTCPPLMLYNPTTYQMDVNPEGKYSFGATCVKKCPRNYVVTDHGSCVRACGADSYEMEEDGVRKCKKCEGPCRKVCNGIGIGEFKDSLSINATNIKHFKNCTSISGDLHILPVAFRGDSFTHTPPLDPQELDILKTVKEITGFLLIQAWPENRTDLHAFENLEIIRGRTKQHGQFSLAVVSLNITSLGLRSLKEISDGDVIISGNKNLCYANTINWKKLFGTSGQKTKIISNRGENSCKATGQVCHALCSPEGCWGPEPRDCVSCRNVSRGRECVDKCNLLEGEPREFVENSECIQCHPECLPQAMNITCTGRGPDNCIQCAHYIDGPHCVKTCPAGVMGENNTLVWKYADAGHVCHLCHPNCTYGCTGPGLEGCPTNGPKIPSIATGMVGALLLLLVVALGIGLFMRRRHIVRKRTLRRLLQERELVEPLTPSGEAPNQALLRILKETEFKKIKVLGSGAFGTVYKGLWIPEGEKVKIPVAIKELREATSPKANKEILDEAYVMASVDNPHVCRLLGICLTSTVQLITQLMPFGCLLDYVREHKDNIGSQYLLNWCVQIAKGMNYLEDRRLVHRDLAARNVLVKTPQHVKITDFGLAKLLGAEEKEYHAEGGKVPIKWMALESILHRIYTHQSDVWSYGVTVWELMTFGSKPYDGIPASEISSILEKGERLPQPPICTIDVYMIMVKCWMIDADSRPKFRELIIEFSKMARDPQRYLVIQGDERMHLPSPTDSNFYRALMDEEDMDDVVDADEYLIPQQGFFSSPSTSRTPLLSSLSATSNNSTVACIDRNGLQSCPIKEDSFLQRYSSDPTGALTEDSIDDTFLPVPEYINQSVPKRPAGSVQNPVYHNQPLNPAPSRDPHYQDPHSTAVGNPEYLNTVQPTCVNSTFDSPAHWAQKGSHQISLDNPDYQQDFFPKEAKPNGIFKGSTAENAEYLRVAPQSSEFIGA
The crude P2 membrane fraction from A431 or NAlM6 cells were used in further binding experiments for pharmacological characterization. […] While, in the NALM6 as a negative-EGFR leukemia cell line, [^125I]PYK binding to cell membranes was undetectable.

The subject of data set [2] is A431 epidermoid carcinoma cell line. The conditions noted are these: in vitro; ref [12], [13]; read-out: IC50, cytotoxicity A431 epidermoid carcinoma cell line; cited from earlier work.
Data set [3] concerns EGFR-TK. Further details: method as in PMID 21058048, PMID 22354330. As to conditions: ref [21], [22]; cited from earlier work.
Data set [4] addresses T1, EGFR-TK (Homo sapiens, UniProt P00533). The experiment in a line: Inhibitory potency against EGFR-TK (SignaTECT protein kinase assay, [32P]ATP phosphorylation). Format: biochemical. Further details: The EGF receptor used was an immunopurified receptor from human A431 cells (Promega, WI); purchased Promega; host or cells: A431 cells (endogenous receptor, immunopurified). The conditions noted are these: immunopurified EGF receptor from human A431 cells, inhibition of phosphorylation by [32P]ATP, triplicate. The method, then: The inhibitory potency of the new derivatives against EGFR-TK was measured using a Signa TECT® Protein Kinase Assay System (Promega, WI) according to the protein tyrosine kinase assay protocol of the attached document. The EGF receptor used was an immunopurified receptor from human A431 cells (Promega, WI). […] The reaction was allowed to proceed for 10 min at 30 °C and then was stopped by the addition of guanidine hydrochloride solution (7.5 M, 13 μL). Each reaction mixture (12.5 μL) was spotted onto a biotin capture membrane. After all of the samples had been spotted, they were washed and rinsed as follows: 1 time for 30 s with 200 mL of 2 M NaCl, 3 times for 2 min each with 200 mL of 2 M NaCl, 4 times for 2 min each with 200 mL of 2 M NaCl in 1 % H3PO4, and 2 times for 30 s each with 100 mL of deionized water. The biotin capture membranes were dried on a piece of aluminum foil under a heat lamp for 5–10 min. The radioactivity trapped on the biotin capture membranes was counted with a liquid scintillation counter in 10 mL of scintillation fluid. The IC50 values were determined from sigmoid curves of the percent inhibition of [^32P]ATP radioactivity.
The inhibitory potency of new phenoxyquinazoline derivatives against EGFR-TK in A431 cell membranes was measured as the inhibition of EGFR phosphorylation by [^32P]ATP.

Data set [5] has as its target T1, EGFR-TK. The conditions noted are these: inhibitor 1 μM, A431 P2 membranes, 60 min, 25 °C.
Source text: The difference between non-treatment and pretreatment data was examined by Student’s paired t test.
The test system of a further data set is A431 tumor. Kind of data set: Tumor uptake of radioiodinated ligands in A431 tumor-bearing mice. The format is in vivo, balb/c nude mice. As to conditions: A431 tumor-bearing mice; for accumulation in tumors: i.v., 1 h post injection. The method, then: A suspension of 1 × 10^7 A431 cells in 0.1 mL of medium was inoculated subcutaneously in male balb/c nude mice (4 weeks old, 20–25 g, n = 3). After approximately 2 weeks, when the solid tumor had grown to optimal size, the mice were used for tumor uptake studies. [^125I]6a–d (37 kBq, 74 TBq/mmol) in 0.1 mL of saline was injected intravenously into tumor-bearing mice via the lateral tail vein. At 1 or 24 h after administration, the animals were sacrificed. Samples of tumor were excised and weighed. Radioactivity was measured using a well-type NaI(Tl) scintillation gamma counter. The results were expressed in terms of percentage of injected dose per gram of tumor.

On the set-up of data set [6]: method as in PMID 21058048, PMID 22354330. As to conditions: ref [21], [22]; cited from earlier work.

T1 sequence (P00533 25-1210): as above

Take `CCOc1cc2ncnc(Oc3cccc(I)c3)c2cc1OCCCN1CCOCC1` [[^125I]PYK]: the dissociation constant (Kd) in data set [1] was 51.3 ± 11.1 nM. For `COc1cc2ncnc(Nc3cccc(Br)c3)c2cc1OC` [PD153035, 4-(3-bromoanilino)-6,7-dimethoxyquinazoline], the IC50 in data set [2] was 0.029 nM.

`CCOc1cc2ncnc(Oc3cccc(I)c3)c2cc1OCC` [PHY, 4-(3-Iodophenoxy)-6,7-diethoxyquinazoline, reference compound]: the IC50 with EGFR-TK [3] and on EGFR-TK [4] was 49 ± 7.2 nM in each case. Regarding `O=P(O)(O)C(O)c1ccc2ccccc2c1` (centres unmarked) [HNMPA], the “blocking effect on [125I]PYK binding to EGFR-TK” value on EGFR-TK [5] is “failed to block”.

For `CCOc1cc2ncnc(Oc3cccc(I)c3)c2cc1OCCCN(C)C` [6d, 6-(3-Dimethylaminopropoxy)-7-ethoxy-4-(3′-iodophenoxy) quinazoline], the melting point fell in the range of 64 to 67 °C. Further, on EGFR-TK [4], the IC50 was 113 nM and 41.5 nM. As to `CCOc1cc2ncnc(Nc3cccc(I)c3)c2cc1OCC` [m-IPQ, 4-(3-Iodoanilino)-6,7-diethoxyquinazoline], in the data set with EGFR-TK [3], the IC50 was 50.5 ± 3.5 nM. The “blocking effect on [125I]PYK binding to EGFR-TK” value at EGFR-TK [5] is recorded as “significant reduction”. Take `CCOc1cc2ncnc(Oc3cccc(I)c3)c2cc1OCc1ccccc1` [6f, 6-Benzyloxy-7-ethoxy-4-(3′-iodophenoxy)quinazoline]: the melting point lay in the range of 140 to 142 °C. The same molecule displayed an IC50 on EGFR-TK [4] of over 500 nM.

Take `CCOc1cc2ncnc(Oc3cccc([125I])c3)c2cc1OCCCN(C)C` [[^125I]6d]: in the data set on A431 tumor (24 h after injection), the “retention in tumors (in words)” value is “low retention”. The molecule also gave an accumulation in tumors in the data set on A431 tumor of 0.55 ± 0.12 % ID/g tissue. Consider `CCOc1cc2ncnc(Oc3cccc(I)c3)c2cc1OCCCN1CCOCC1` [6a, 6-(3-Morpholinopropoxy)-7-ethoxy-4-(3′-iodophenoxy)quinazoline], for which the melting point is 135 to 137 °C. Also, inhibition against EGFR-TK [4] was half-maximal at 12 ± 3.9 nM (IC50).

Regarding `CCOc1cc2ncnc(Oc3cccc(I)c3)c2cc1OCCCN1CCN(C)CC1` [6b, 6-[3-(4-Methylpiperazinylpropoxy)]-7-ethoxy-4-(3′-iodophenoxy)quinazoline], half-maximal inhibition against EGFR-TK [4] (IC50) was put at 16.5 ± 1.8 nM.

Molecule `CCOc1cc2ncnc(Oc3cccc(I)c3)c2cc1OCCCc1ccccc1` [6e, 6-(3-Phenylpropoxy)-7-ethoxy-4-(3′-iodophenoxy)quinazoline] gave a melting point of 108 to 109 °C. The IC50 against EGFR-TK [4] is over 500 nM. In turn, `CCOc1cc2ncnc(Oc3cccc(I)c3)c2cc1OC(C)C` [6c, 6-Isopropoxy-7-ethoxy-4-(3′-iodophenoxy)quinazoline] came in with a melting point of 59 to 62 °C. In addition, at EGFR-TK [4], the IC50 was 41.5 nM and 113 nM. For `CCOc1cc2ncnc(Oc3cccc([125I])c3)c2cc1OCC` [[^125I]PHY], in the data set with A431 tumor, the accumulation in tumors was 0.56 ± 0.12 % ID/g tissue. Besides, in data set [6], the tumor-to-blood ratio is reported as 0.94–1.50 and the tumor-to-muscle ratio was 1.02–1.95.

These data come from paper PMC3672506, “A useful EGFR-TK ligand for tumor diagnosis with SPECT: development of radioiodinated 6-(3-morpholinopropoxy)-7-ethoxy-4-(3′-iodophenoxy)quinazoline” (Annals of Nuclear Medicine, 2013).
